Results reported in ChEMBL document CHEMBL1141033, “First-in-class pan caspase inhibitor developed for the treatment of liver disease” (J Med Chem, 2005).

Key:
THP-1 = test: Inhibitory concentration against THP-1 cells; assay type: functional, cell-based; conditions: Homo sapiens
Jurkat = test: Inhibitory concentration against JFas cells; assay type: functional, cell-based; conditions: Homo sapiens
Caspase-6 (Homo sapiens) = biological target: T1, Caspase-6 (Homo sapiens) (UniProt P55212); test: Inhibitory activity against Caspase-6
T1 sequence (whole entry): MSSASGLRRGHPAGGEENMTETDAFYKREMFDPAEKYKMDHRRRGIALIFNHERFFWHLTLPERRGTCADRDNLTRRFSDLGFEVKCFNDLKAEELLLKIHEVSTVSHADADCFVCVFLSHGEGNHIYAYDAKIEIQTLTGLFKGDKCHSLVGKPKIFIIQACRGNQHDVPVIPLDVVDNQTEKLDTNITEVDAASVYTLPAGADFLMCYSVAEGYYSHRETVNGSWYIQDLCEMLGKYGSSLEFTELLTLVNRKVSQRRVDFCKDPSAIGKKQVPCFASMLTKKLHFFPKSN

Caspase-8 (Homo sapiens) = Caspase-8 (Homo sapiens) (UniProt Q14790); test: Inhibitory activity against Caspase-8
Caspase-8 (Homo sapiens), sequence (Q14790 217-374 limits assumed): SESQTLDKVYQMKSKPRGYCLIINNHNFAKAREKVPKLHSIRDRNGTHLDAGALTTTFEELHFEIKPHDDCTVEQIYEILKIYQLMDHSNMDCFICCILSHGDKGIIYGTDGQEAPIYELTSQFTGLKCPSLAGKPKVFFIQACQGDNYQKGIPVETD
Caspase-8 (Homo sapiens), sequence (Q14790 385-479 limits assumed): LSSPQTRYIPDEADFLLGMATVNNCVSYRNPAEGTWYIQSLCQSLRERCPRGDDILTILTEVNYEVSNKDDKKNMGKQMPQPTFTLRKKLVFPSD

Caspase-3 (Homo sapiens) = biological target: T2, Caspase-3 (Homo sapiens) (UniProt P42574); test: Inhibitory activity against Caspase-3
T2 sequence (whole entry): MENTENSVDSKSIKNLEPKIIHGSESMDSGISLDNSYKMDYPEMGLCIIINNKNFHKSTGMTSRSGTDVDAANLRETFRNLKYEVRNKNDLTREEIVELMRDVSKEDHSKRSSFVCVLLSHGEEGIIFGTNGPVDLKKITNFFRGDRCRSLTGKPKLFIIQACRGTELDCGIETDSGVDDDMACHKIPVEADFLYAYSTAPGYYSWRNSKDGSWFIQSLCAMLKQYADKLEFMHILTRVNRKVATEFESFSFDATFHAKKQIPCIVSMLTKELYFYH

Caspase-1 (Mus musculus) = biological target: T3, Caspase-1 (Mus musculus) (UniProt P29452); test: Inhibitory activity against murine Caspase-1
T3 sequence (whole entry): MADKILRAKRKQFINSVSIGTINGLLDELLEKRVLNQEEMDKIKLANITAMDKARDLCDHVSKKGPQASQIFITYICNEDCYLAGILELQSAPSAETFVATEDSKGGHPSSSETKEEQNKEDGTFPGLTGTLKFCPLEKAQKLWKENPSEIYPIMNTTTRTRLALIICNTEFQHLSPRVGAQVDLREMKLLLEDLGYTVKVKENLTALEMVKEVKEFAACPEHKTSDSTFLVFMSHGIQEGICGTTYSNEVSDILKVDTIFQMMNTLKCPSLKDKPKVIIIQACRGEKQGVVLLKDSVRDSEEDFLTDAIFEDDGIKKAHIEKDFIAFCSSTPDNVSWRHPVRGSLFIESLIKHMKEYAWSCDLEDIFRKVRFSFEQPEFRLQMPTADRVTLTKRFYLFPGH

Mus musculus [1] = test: Effective dose required for pancaspase inhibition in a-Fas liver upon i.p. administration; range = 0.02-0.16; conditions: ip
Mus musculus [2] = test: Effective dose required for pancaspase inhibition in a-Fas liver upon i.p. administration; range = 0.06-0.12; conditions: ip
Mus musculus [3] = test: Effective dose required for pancaspase inhibition in a-Fas liver upon i.p. administration; range = 0.02-0.11; conditions: ip
Mus musculus [4] = test: Effective dose required for pancaspase inhibition in a-Fas liver upon i.p. administration; conditions: ip
Rattus norvegicus [5] = test: Effective dose required for pancaspase inhibition in a-Fas liver upon i.p. administration; range = 0.03-0.05; assay type: functional; conditions: ip
Rattus norvegicus [6] = test: Effective dose required for pancaspase inhibition in a-Fas liver after an i.p. administration; assay type: functional; conditions: ip

SMILES	IC50 (THP-1)	IC50 (Jurkat)	k3/Ki (Caspase-6 (Homo sapiens))	k3/Ki (Caspase-8 (Homo sapiens))	k3/Ki (Caspase-3 (Homo sapiens))	k3/Ki (Caspase-1 (Mus musculus))	ED50 (Mus musculus [1])	ED50 (Mus musculus [2])	ED50 (Mus musculus [3])	ED50 (Mus musculus [4])	ED50 (Rattus norvegicus [5])	ED50 (Rattus norvegicus [6])
C[C@H](NC(=O)C(=O)Nc1ccccc1F)C(=O)N[C@@H](CC(=O)O)C(=O)COc1c(F)c(F)cc(F)c1F	160 nM	160 nM	19800 M⁻¹ s⁻¹	114000 M⁻¹ s⁻¹	70000 M⁻¹ s⁻¹	1.14e+06 M⁻¹ s⁻¹	–	–	–	–	–	–
C[C@H](NC(=O)C(=O)Nc1ccccc1-c1ccc[nH]1)C(=O)N[C@@H](CC(=O)O)C(=O)COc1c(F)c(F)cc(F)c1F	> 32000 nM	56 nM	7750 M⁻¹ s⁻¹	1.2e+06 M⁻¹ s⁻¹	12000 M⁻¹ s⁻¹	1.52e+06 M⁻¹ s⁻¹	–	–	–	–	–	–
C[C@H](NC(=O)C(=O)NCc1ccccc1)C(=O)N[C@@H](CC(=O)O)C(=O)COc1c(F)c(F)cc(F)c1F	160 nM	300 nM	37100 M⁻¹ s⁻¹	32500 M⁻¹ s⁻¹	35500 M⁻¹ s⁻¹	674000 M⁻¹ s⁻¹	–	–	–	–	–	–
C[C@H](NC(=O)C(=O)Nc1ccccc1Cl)C(=O)N[C@@H](CC(=O)O)C(=O)COc1c(F)c(F)cc(F)c1F	540 nM	64 nM	26000 M⁻¹ s⁻¹	228000 M⁻¹ s⁻¹	219000 M⁻¹ s⁻¹	1.34e+07 M⁻¹ s⁻¹	0.05 mg/kg	–	–	–	–	–
C[C@H](NC(=O)C(=O)Nc1ccccc1C(C)(C)C)C(=O)N[C@@H](CC(=O)O)C(=O)COc1c(F)c(F)cc(F)c1F [EMRICASAN]	270 nM	25 nM	58700 M⁻¹ s⁻¹	2.94e+06 M⁻¹ s⁻¹	75700 M⁻¹ s⁻¹	689000 M⁻¹ s⁻¹	–	0.08 mg/kg	–	–	–	–
O=C(O)CC(NC(=O)[C@@H]1Cc2cccc3c2N1C(=O)[C@@H](NC(=O)OCc1ccccc1)CC3)C(=O)CF (stereo partly drawn)	300 nM	510 nM	25000 M⁻¹ s⁻¹	98000 M⁻¹ s⁻¹	960000 M⁻¹ s⁻¹	1.2e+07 M⁻¹ s⁻¹	–	–	–	–	–	–
C[C@H](NC(=O)C(=O)Nc1ccccc1Br)C(=O)N[C@@H](CC(=O)O)C(=O)COc1c(F)c(F)cc(F)c1F	50 nM	75 nM	25200 M⁻¹ s⁻¹	542000 M⁻¹ s⁻¹	186000 M⁻¹ s⁻¹	1.34e+06 M⁻¹ s⁻¹	–	–	–	–	–	–
C[C@H](NC(=O)C(=O)Nc1cccc2ccccc12)C(=O)N[C@@H](CC(=O)O)C(=O)COc1c(F)c(F)cc(F)c1F	60 nM	86 nM	18500 M⁻¹ s⁻¹	460000 M⁻¹ s⁻¹	57000 M⁻¹ s⁻¹	1.7e+06 M⁻¹ s⁻¹	–	–	–	–	–	–
C[C@H](NC(=O)C(=O)Nc1cc(C(C)(C)C)ccc1C(C)(C)C)C(=O)N[C@@H](CC(=O)O)C(=O)COc1c(F)c(F)cc(F)c1F	1840 nM	62 nM	15400 M⁻¹ s⁻¹	365000 M⁻¹ s⁻¹	38200 M⁻¹ s⁻¹	1.63e+07 M⁻¹ s⁻¹	–	–	0.05 mg/kg	–	–	–
C[C@H](NC(=O)C(=O)NC1CCCCC1)C(=O)N[C@@H](CC(=O)O)C(=O)COc1c(F)c(F)cc(F)c1F	500 nM	150 nM	268 M⁻¹ s⁻¹	2800 M⁻¹ s⁻¹	21000 M⁻¹ s⁻¹	390000 M⁻¹ s⁻¹	–	–	–	–	–	–
C[C@H](NC(=O)C(=O)Nc1ccc2c(c1)CCC2)C(=O)N[C@@H](CC(=O)O)C(=O)COc1c(F)c(F)cc(F)c1F	120 nM	200 nM	31900 M⁻¹ s⁻¹	204000 M⁻¹ s⁻¹	42000 M⁻¹ s⁻¹	270000 M⁻¹ s⁻¹	–	–	–	–	–	–
C[C@H](NC(=O)C(=O)Nc1ccccc1Oc1ccccc1)C(=O)N[C@@H](CC(=O)O)C(=O)COc1c(F)c(F)cc(F)c1F	800 nM	530 nM	5900 M⁻¹ s⁻¹	154000 M⁻¹ s⁻¹	51000 M⁻¹ s⁻¹	960000 M⁻¹ s⁻¹	–	–	–	–	–	–
C[C@H](NC(=O)C(=O)Nc1cc(C(C)(C)C)ccc1C(C)(C)C)C(=O)N[C@@H](CC(=O)O)C(=O)COP(=O)(c1ccccc1)c1ccccc1	5870 nM	109 nM	7640 M⁻¹ s⁻¹	970000 M⁻¹ s⁻¹	18300 M⁻¹ s⁻¹	2.71e+06 M⁻¹ s⁻¹	–	–	–	0.5 mg/kg	–	–
C[C@H](NC(=O)C(=O)Nc1ccccc1-c1ccccc1)C(=O)N[C@@H](CC(=O)O)C(=O)COC(=O)c1c(Cl)cccc1Cl	4360 nM	390 nM	61000 M⁻¹ s⁻¹	342000 M⁻¹ s⁻¹	29000 M⁻¹ s⁻¹	7.28e+06 M⁻¹ s⁻¹	–	–	–	–	–	–
C[C@H](NC(=O)C(=O)Nc1ccccc1Cc1ccccc1)C(=O)N[C@@H](CC(=O)O)C(=O)COc1c(F)c(F)cc(F)c1F	540 nM	10 nM	33600 M⁻¹ s⁻¹	617000 M⁻¹ s⁻¹	44400 M⁻¹ s⁻¹	1.97e+06 M⁻¹ s⁻¹	–	–	–	–	–	–
C[C@H](NC(=O)C(=O)Nc1ccccn1)C(=O)N[C@@H](CC(=O)O)C(=O)COc1c(F)c(F)cc(F)c1F	200 nM	1040 nM	23700 M⁻¹ s⁻¹	201000 M⁻¹ s⁻¹	44000 M⁻¹ s⁻¹	468000 M⁻¹ s⁻¹	–	–	–	–	–	–
C[C@H](NC(=O)C(=O)Nc1ccccc1C(F)(F)F)C(=O)N[C@@H](CC(=O)O)C(=O)COc1c(F)c(F)cc(F)c1F	190 nM	61 nM	45600 M⁻¹ s⁻¹	332000 M⁻¹ s⁻¹	309000 M⁻¹ s⁻¹	9.95e+06 M⁻¹ s⁻¹	–	–	–	–	–	–
C[C@H](NC(=O)C(=O)Nc1ccccc1Cl)C(=O)N[C@@H](CC(=O)O)C(=O)COC(=O)c1c(Cl)cccc1Cl	320 nM	1170 nM	44000 M⁻¹ s⁻¹	109 M⁻¹ s⁻¹	256000 M⁻¹ s⁻¹	8.31e+06 M⁻¹ s⁻¹	–	–	–	–	–	–
C[C@H](NC(=O)C(=O)Nc1ccccc1C(C)(C)C)C(=O)N[C@@H](CC(=O)O)C(=O)COC(=O)c1c(Cl)cccc1Cl	11800 nM	143 nM	105000 M⁻¹ s⁻¹	4300 M⁻¹ s⁻¹	236000 M⁻¹ s⁻¹	8.33e+06 M⁻¹ s⁻¹	–	–	–	45.8 mg/kg	–	–
C[C@H](NC(=O)C(=O)Nc1ccccc1)C(=O)N[C@@H](CC(=O)O)C(=O)COc1c(F)c(F)cc(F)c1F	140 nM	670 nM	31700 M⁻¹ s⁻¹	65300 M⁻¹ s⁻¹	25400 M⁻¹ s⁻¹	127000 M⁻¹ s⁻¹	–	–	–	–	–	–
C[C@H](NC(=O)C(=O)Nc1ccccc1C(C)(C)C)C(=O)N[C@@H](CC(=O)O)C(=O)COP(=O)(c1ccccc1)c1ccccc1	9090 nM	81 nM	52100 M⁻¹ s⁻¹	2.01e+06 M⁻¹ s⁻¹	99100 M⁻¹ s⁻¹	2.16e+06 M⁻¹ s⁻¹	–	–	–	0.14 mg/kg	–	–
C[C@H](NC(=O)C(=O)Nc1ccccc1Cl)C(=O)N[C@@H](CC(=O)O)C(=O)COP(=O)(c1ccccc1)c1ccccc1	1040 nM	68 nM	37100 M⁻¹ s⁻¹	1.41e+06 M⁻¹ s⁻¹	211000 M⁻¹ s⁻¹	3.96e+06 M⁻¹ s⁻¹	–	–	–	–	0.04 mg/kg	–
Cc1c(C(=O)N[C@H](C(=O)NC(CC(=O)O)C(=O)CF)C(C)C)n(C)c2ccccc12 (stereo partly drawn)	10000 nM	1300 nM	98000 M⁻¹ s⁻¹	34400 M⁻¹ s⁻¹	19000 M⁻¹ s⁻¹	10100 M⁻¹ s⁻¹	–	–	–	–	–	–
C[C@H](NC(=O)C(=O)Nc1ccccc1-c1ccccc1)C(=O)N[C@@H](CC(=O)O)C(=O)COP(=O)(c1ccccc1)c1ccccc1	4120 nM	3940 nM	22700 M⁻¹ s⁻¹	1.57e+06 M⁻¹ s⁻¹	28400 M⁻¹ s⁻¹	5e+06 M⁻¹ s⁻¹	–	–	–	–	–	0.44 mg/kg
C[C@H](NC(=O)C(=O)Nc1cc(C(C)(C)C)ccc1C(C)(C)C)C(=O)N[C@@H](CC(=O)O)C(=O)COC(=O)c1c(Cl)cccc1Cl	3130 nM	1380 nM	6400 M⁻¹ s⁻¹	68 M⁻¹ s⁻¹	30000 M⁻¹ s⁻¹	4.02e+06 M⁻¹ s⁻¹	–	–	–	–	–	–
